Where two headings read alike, the source gives them in different places.
Tests used:
normotensive rabbits = assay: IOP study in rabbits; format: in vivo, rabbit; details: for Intraocular pressure (IOP) change: mean ± SE, n = 5-6
Experimental: The IOP lowering effect of the prodrug was also compared to the effect of MPV-2426.
To perform the IOP test, a rabbit was placed in a plastic restraining box located in a quiet room. A single drop (25 μl) of the test solution was instilled unilaterally into its left eye on the upper corneoscleral limbus. During installation, the upper eyelid was pulled slightly away from the globe. IOP was measured using a BioRad (Cambridge, Mass.) Digilab Modular One Pneumatonometer. Before each measurement one or two drops of oxybuprocaine (0.06%) were applied to the cornea before tonometry to eliminate discomfort. The upper and lower eyelids were then gently retracted, and the applanation sensor was brought into contact with the center of the cornea. For each
determination at least two readings were taken from each treated (ipsilateral) and untreated (contralateral) eye, and the mean of these readings was used. IOP of the rabbits was measured at 2, 1, and 0 h before and at 0.5, 1, 2, 3, 4 and 5 h after eyedrop administration. IOP at the time of eyedrop administration (0 h) was used as a baseline value. All studies were set up using a masked and randomized crossover design. At least 72 h washout time was allowed for each rabbit between each dosing. Results

serum esterases = assay: Enzymatic hydrolysis in 80% human serum; format: in vitro ADME; details: pH 7.4, 37° C., read-out: t1/2 (min) 80% human serum (pH 7.4)
Experimental: To exert the pharmacological effect in the body, a prodrug should be enzymatically degraded to the parent drug. Therefore, the susceptibility of the compounds to serum esterases was evaluated.
An appropriate amount of the test compound was dissolved in one volume (e.g. 1 ml) of phosphate buffer (0.16 M, μ=0.5, pH 7.4) at 37° C. Four volumes (e.g. 4 ml) of pre-heated human serum were added and the solutions were mixed in a water bath at 37° C. (initial concentrations were 0.2-0.5 mM). At suitable intervals, 300 μl aliquots were withdrawn and deproteinated with 600 μl of acetonitrile. After mixing and centrifugation, 600 μl of the supernatant was evaporated to dryness under a stream of air at 40° C. The residue was re-dissolved in 300 μl of the mobile phase and analyzed by HPLC. The pseudo-first-order half-life (t1/2) was calculated from the linear slopes of semi-logarithmic plots of remaining compound over time. Also the formation of the parent drug was determined.

[1] = Chemical stability in phosphate buffer at 37° C.; format: physicochemical
Experimental: An appropriate amount of the test compound (initial concentrations were 0.1-0.4 mM) was dissolved in pre-heated phosphate buffer (0.16 M, μ=0.5, pH 7.4 or pH 5.0). The solution was placed in a thermostated water bath at 37° C. and aliquots were taken at suitable intervals and analyzed by HPLC to determine the degradation rate of the compound. The pseudo-first-order half-life (t1/2) was calculated from the linear slopes of semi-logarithmic plots of remaining compound over time.

[2] = phosphate buffer pH 5.0, 37° C., read-out: t1/2 (d) phosphate buffer pH 5.0 (converted)
[3] = phosphate buffer pH 7.4, 37° C., read-out: t1/2 (d) phosphate buffer pH 7.4 (converted)
[4] = topical unilateral administration

## Cl.Oc1ccc2c(c1)C(Cc1c[nH]cn1)CC2 (stereo not drawn) [MPV-2426, 4-(6-hydroxyindan-1-ylmethyl)-1H-imidazol-1-ium chloride, reference compound]
Normotensive rabbits; treated eye, 2.5 μg, 0 h
  Intraocular pressure (IOP) change: 0.0 ± 0.0 mmHg
Normotensive rabbits; treated eye, 2.5 μg, 0.5 h
  Intraocular pressure (IOP) change: 0.1 ± 1.0 mmHg
Normotensive rabbits; treated eye, 2.5 μg, 1 h
  Intraocular pressure (IOP) change: −2.6 ± 1.1 mmHg
Normotensive rabbits; treated eye, 2.5 μg, 2 h
  Intraocular pressure (IOP) change: −3.0 ± 0.7 mmHg
Normotensive rabbits; treated eye, 2.5 μg, 3 h
  Intraocular pressure (IOP) change: −2.4 ± 0.5 mmHg
Normotensive rabbits; treated eye, 2.5 μg, 4 h
  Intraocular pressure (IOP) change: −0.4 ± 1.2 mmHg
Normotensive rabbits; treated eye, 2.5 μg, 5 h
  Intraocular pressure (IOP) change: −0.1 ± 0.8 mmHg
Normotensive rabbits; untreated eye, 2.5 μg, 0 h
  Intraocular pressure (IOP) change: 0.0 ± 0.0 mmHg
Normotensive rabbits; untreated eye, 2.5 μg, 0.5 h
  Intraocular pressure (IOP) change: 0.3 ± 1.0 mmHg
Normotensive rabbits; untreated eye, 2.5 μg, 1 h
  Intraocular pressure (IOP) change: −1.3 ± 0.7 mmHg
Normotensive rabbits; untreated eye, 2.5 μg, 2 h
  Intraocular pressure (IOP) change: −1.6 ± 0.9 mmHg
Normotensive rabbits; untreated eye, 2.5 μg, 3 h
  Intraocular pressure (IOP) change: −1.7 ± 0.6 mmHg
Normotensive rabbits; untreated eye, 2.5 μg, 4 h
  Intraocular pressure (IOP) change: 0.4 ± 1.1 mmHg
Normotensive rabbits; untreated eye, 2.5 μg, 5 h
  Intraocular pressure (IOP) change: 0.4 ± 1.1 mmHg

## CC(=O)Oc1ccc2c(c1)C(Cc1c[nH]cn1)CC2.Cl (stereo not drawn) [example 1, 4-(6-Acetoxyindan-1-ylmethyl)-1H-imidazol-1-ium chloride]
Serum esterases
  half-life: 0.18 min
[1]; [2]
  half-life: 23 days
[1]; [3]
  half-life: 1.1 days

## CCCC(=O)Oc1ccc2c(c1)C(Cc1c[nH]cn1)CC2.Cl (stereo not drawn) [example 2, 4-(6-Butyryloxyindan-1-ylmethyl)-1H-imidazol-1-ium chloride]
Serum esterases
  half-life: 0.2 min
[1]; [2]
  half-life: 49 days
[1]; [3]
  half-life: 2.5 days

## CC(C)(C)C(=O)Oc1ccc2c(c1)C(Cc1c[nH]cn1)CC2.Cl (stereo not drawn) [example 3, 4-[6-(2,2-Dimethylpropanoyloxy)indan-1-ylmethyl]-1H-imidazol-1-ium chloride]
Serum esterases
  half-life: 30 min
other
  melting point: 176 to 177 °C
[1]; [2]
  half-life: 310 days
[1]; [3]
  half-life: 31 days
Normotensive rabbits; [4]
  IOP lowering potency compared to an equimolar dose of MPV-2426: increased IOP lowering potency
  duration of action compared to MPV-2426: prolonged duration of action
Normotensive rabbits; topical unilateral administration, treated eye
  duration of the IOP lowering effect: lasted from 1 h through the duration of the 5 h experiment
Normotensive rabbits; treated eye, 0.1 μg, 0 h
  Intraocular pressure (IOP) change: 0.0 ± 0.0 mmHg
Normotensive rabbits; treated eye, 0.1 μg, 0.5 h
  Intraocular pressure (IOP) change: 1.7 ± 0.9 mmHg
Normotensive rabbits; treated eye, 0.1 μg, 1 h
  Intraocular pressure (IOP) change: 0.2 ± 1.3 mmHg
Normotensive rabbits; treated eye, 0.1 μg, 2 h
  Intraocular pressure (IOP) change: 0.8 ± 1.2 mmHg
Normotensive rabbits; treated eye, 0.1 μg, 3 h
  Intraocular pressure (IOP) change: 0.6 ± 0.6 mmHg
Normotensive rabbits; treated eye, 0.1 μg, 4 h
  Intraocular pressure (IOP) change: 1.8 ± 0.5 mmHg
Normotensive rabbits; treated eye, 0.1 μg, 5 h
  Intraocular pressure (IOP) change: 2.0 ± 0.9 mmHg
Normotensive rabbits; treated eye, 1.0 μg, 0 h
  Intraocular pressure (IOP) change: 0.0 ± 0.0 mmHg
Normotensive rabbits; treated eye, 1.0 μg, 0.5 h
  Intraocular pressure (IOP) change: −1.0 ± 0.3 mmHg
Normotensive rabbits; treated eye, 1.0 μg, 1 h
  Intraocular pressure (IOP) change: −3.6 ± 0.7 mmHg
Normotensive rabbits; treated eye, 1.0 μg, 2 h
  Intraocular pressure (IOP) change: −4.6 ± 1.4 mmHg
Normotensive rabbits; treated eye, 1.0 μg, 3 h
  Intraocular pressure (IOP) change: −4.3 ± 1.1 mmHg
Normotensive rabbits; treated eye, 1.0 μg, 4 h
  Intraocular pressure (IOP) change: −2.0 ± 1.4 mmHg
Normotensive rabbits; treated eye, 1.0 μg, 5 h
  Intraocular pressure (IOP) change: −0.9 ± 1.8 mmHg
Normotensive rabbits; treated eye, 2.5 μg, 0 h
  Intraocular pressure (IOP) change: 0.0 ± 0.0 mmHg
Normotensive rabbits; treated eye, 2.5 μg, 0.5 h
  Intraocular pressure (IOP) change: 0.6 ± 0.9 mmHg
Normotensive rabbits; treated eye, 2.5 μg, 1 h
  Intraocular pressure (IOP) change: −2.9 ± 1.3 mmHg
Normotensive rabbits; treated eye, 2.5 μg, 2 h
  Intraocular pressure (IOP) change: −3.3 ± 1.8 mmHg
Normotensive rabbits; treated eye, 2.5 μg, 3 h
  Intraocular pressure (IOP) change: −1.6 ± 1.7 mmHg
Normotensive rabbits; treated eye, 2.5 μg, 4 h
  Intraocular pressure (IOP) change: 1.0 ± 2.2 mmHg
Normotensive rabbits; treated eye, 2.5 μg, 5 h
  Intraocular pressure (IOP) change: 1.3 ± 1.9 mmHg
Normotensive rabbits; treated eye, 3.4 μg (equimolar to 2.5 μg of MPV-2426), 0 h
  Intraocular pressure (IOP) change: 0.0 ± 0.0 mmHg
Normotensive rabbits; treated eye, 3.4 μg (equimolar to 2.5 μg of MPV-2426), 0.5 h
  Intraocular pressure (IOP) change: −0.9 ± 0.9 mmHg
Normotensive rabbits; treated eye, 3.4 μg (equimolar to 2.5 μg of MPV-2426), 1 h
  Intraocular pressure (IOP) change: −2.9 ± 0.5 mmHg
Normotensive rabbits; treated eye, 3.4 μg (equimolar to 2.5 μg of MPV-2426), 2 h
  Intraocular pressure (IOP) change: −6.5 ± 1.1 mmHg
Normotensive rabbits; treated eye, 3.4 μg (equimolar to 2.5 μg of MPV-2426), 3 h
  Intraocular pressure (IOP) change: −5.2 ± 1.7 mmHg
Normotensive rabbits; treated eye, 3.4 μg (equimolar to 2.5 μg of MPV-2426), 4 h
  Intraocular pressure (IOP) change: −3.2 ± 0.9 mmHg
Normotensive rabbits; treated eye, 3.4 μg (equimolar to 2.5 μg of MPV-2426), 5 h
  Intraocular pressure (IOP) change: −1.4 ± 0.7 mmHg
Normotensive rabbits; untreated (contralateral) eyes
  IOP changes in the untreated eyes: Less significant changes
Normotensive rabbits; untreated eye, 0.1 μg, 0 h
  Intraocular pressure (IOP) change: 0.0 ± 0.0 mmHg
Normotensive rabbits; untreated eye, 0.1 μg, 0.5 h
  Intraocular pressure (IOP) change: 1.4 ± 0.1 mmHg
Normotensive rabbits; untreated eye, 0.1 μg, 1 h
  Intraocular pressure (IOP) change: 0.9 ± 0.5 mmHg
Normotensive rabbits; untreated eye, 0.1 μg, 2 h
  Intraocular pressure (IOP) change: 1.3 ± 0.2 mmHg
Normotensive rabbits; untreated eye, 0.1 μg, 3 h
  Intraocular pressure (IOP) change: 1.3 ± 0.7 mmHg
Normotensive rabbits; untreated eye, 0.1 μg, 4 h
  Intraocular pressure (IOP) change: 1.0 ± 0.9 mmHg
Normotensive rabbits; untreated eye, 0.1 μg, 5 h
  Intraocular pressure (IOP) change: 2.4 ± 1.3 mmHg
Normotensive rabbits; untreated eye, 1.0 μg, 0 h
  Intraocular pressure (IOP) change: 0.0 ± 0.0 mmHg
Normotensive rabbits; untreated eye, 1.0 μg, 0.5 h
  Intraocular pressure (IOP) change: 0.0 ± 1.4 mmHg
Normotensive rabbits; untreated eye, 1.0 μg, 1 h
  Intraocular pressure (IOP) change: −2.1 ± 1.2 mmHg
Normotensive rabbits; untreated eye, 1.0 μg, 2 h
  Intraocular pressure (IOP) change: −2.0 ± 1.8 mmHg
Normotensive rabbits; untreated eye, 1.0 μg, 3 h
  Intraocular pressure (IOP) change: −0.9 ± 2.4 mmHg
Normotensive rabbits; untreated eye, 1.0 μg, 4 h
  Intraocular pressure (IOP) change: −1.4 ± 0.7 mmHg
Normotensive rabbits; untreated eye, 1.0 μg, 5 h
  Intraocular pressure (IOP) change: −0.8 ± 2.1 mmHg
Normotensive rabbits; untreated eye, 2.5 μg, 0 h
  Intraocular pressure (IOP) change: 0.0 ± 0.0 mmHg
Normotensive rabbits; untreated eye, 2.5 μg, 0.5 h
  Intraocular pressure (IOP) change: −0.2 ± 0.9 mmHg
Normotensive rabbits; untreated eye, 2.5 μg, 1 h
  Intraocular pressure (IOP) change: −0.6 ± 0.7 mmHg
Normotensive rabbits; untreated eye, 2.5 μg, 2 h
  Intraocular pressure (IOP) change: 0.0 ± 1.5 mmHg
Normotensive rabbits; untreated eye, 2.5 μg, 3 h
  Intraocular pressure (IOP) change: 0.1 ± 1.0 mmHg
Normotensive rabbits; untreated eye, 2.5 μg, 4 h
  Intraocular pressure (IOP) change: 1.0 ± 1.8 mmHg
Normotensive rabbits; untreated eye, 2.5 μg, 5 h
  Intraocular pressure (IOP) change: 0.3 ± 1.6 mmHg
Normotensive rabbits; untreated eye, 3.4 μg (equimolar to 2.5 μg of MPV-2426), 0 h
  Intraocular pressure (IOP) change: 0.0 ± 0.0 mmHg
Normotensive rabbits; untreated eye, 3.4 μg (equimolar to 2.5 μg of MPV-2426), 0.5 h
  Intraocular pressure (IOP) change: 0.4 ± 0.7 mmHg
Normotensive rabbits; untreated eye, 3.4 μg (equimolar to 2.5 μg of MPV-2426), 1 h
  Intraocular pressure (IOP) change: −2.7 ± 0.8 mmHg
Normotensive rabbits; untreated eye, 3.4 μg (equimolar to 2.5 μg of MPV-2426), 2 h
  Intraocular pressure (IOP) change: −1.3 ± 0.6 mmHg
Normotensive rabbits; untreated eye, 3.4 μg (equimolar to 2.5 μg of MPV-2426), 3 h
  Intraocular pressure (IOP) change: −2.8 ± 0.8 mmHg
Normotensive rabbits; untreated eye, 3.4 μg (equimolar to 2.5 μg of MPV-2426), 4 h
  Intraocular pressure (IOP) change: −0.8 ± 0.7 mmHg
Normotensive rabbits; untreated eye, 3.4 μg (equimolar to 2.5 μg of MPV-2426), 5 h
  Intraocular pressure (IOP) change: −0.8 ± 1.0 mmHg
